Test results taken from patent US7388016B2, “Dibenzonaphthyridine derivatives and methods of use thereof” (Wyeth, priority 2005, dated 2008).

Target: T1, PDK-1 (Homo sapiens, UniProt O15530)
T1 sequence (O15530 1-556): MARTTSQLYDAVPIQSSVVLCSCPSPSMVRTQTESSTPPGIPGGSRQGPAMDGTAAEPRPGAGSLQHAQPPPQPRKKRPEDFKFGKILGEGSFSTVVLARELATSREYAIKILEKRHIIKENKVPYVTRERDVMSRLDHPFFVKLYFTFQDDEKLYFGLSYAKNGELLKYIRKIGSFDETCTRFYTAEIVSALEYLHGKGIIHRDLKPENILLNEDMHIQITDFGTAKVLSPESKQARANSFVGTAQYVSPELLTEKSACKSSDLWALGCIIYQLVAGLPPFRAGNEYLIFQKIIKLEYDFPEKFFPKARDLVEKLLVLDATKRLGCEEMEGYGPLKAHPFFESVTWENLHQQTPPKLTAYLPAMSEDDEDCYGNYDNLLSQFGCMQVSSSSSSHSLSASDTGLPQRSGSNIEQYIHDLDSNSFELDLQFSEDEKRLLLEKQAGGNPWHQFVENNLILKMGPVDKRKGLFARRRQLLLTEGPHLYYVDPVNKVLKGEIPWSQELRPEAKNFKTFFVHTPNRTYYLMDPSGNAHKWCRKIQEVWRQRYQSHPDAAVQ
Assay: In vitro PDK-1 inhibition ELISA assay (phosphorylation of SGK1 on Threonine 256)
Format: biochemical
Conditions: PDK-1 phosphorylates 6xHIS tagged SGK1, 17 minutes reaction, chemiluminescent detection
Protocol: The ability of illustrative Dibenzonaphthyridine Derivatives to inhibit PDK-1 in vitro can be determined using the ELISA assay as decribed in Kobayashi et al., Biochem. J. 339:319-328 (1999) and Park et al., EMBO J. 18:3024-3033 (1999).
In this in vitro assay, PDK-1 kinase phosphorylates SGK1 on Threonine 256. After 17 minutes, the reaction is quenched via the addition of urea. The 6×HIS tagged SGK1 is then bound to 96 well Ni-NTA HisSorb plates and the phosphorylated SGK1 is detected using rabbit derived anti-phospho SGK antibody as the primary antibody and HRP coupled anti-rabbit antibody as the secondary antibody. HRP is then detected using a Chemiluminescent Substrate.

SMILES | IC50 [nM]
COc1cc2c(cc1OCC1CCCN(C)C1)ncc1c(N)nc3c(C)c(N)ccc3c12 (centres unmarked) [Ib-34, 11-methoxy-4-methyl-10-[(1-methylpiperidin-3-yl)methoxy]dibenzo[c,f]-2,7-naphthyridine-3,6-diamine] | 1770
COc1cc2ncc3c(N)nc4c(C)c(N5C(=O)c6ccccc6C5=O)ccc4c3c2cc1OC [Ib-36, 2-(6-amino-10,11-dimethoxy-4-methyldibenzo[c,f]-2,7-naphthyridin-3-yl)-1H-isoindole-1,3(2H)-dione] | 1730
COc1cc2c(cc1OCCC(C)C)ncc1c(N)nc3c(C)c(N)ccc3c12 [Ib-40, 11-methoxy-4-methyl-10-(3-methylbutoxy)dibenzo[c,f]-2,7-naphthyridine-3,6-diamine] | 1180
COc1cc2c(cc1OCCC(C)(C)C)ncc1c(N)nc3c(C)c(N)ccc3c12 [Ib-41, 10-(3,3-dimethylbutoxy)-11-methoxy-4-methyldibenzo[c,f]-2,7-naphthyridine-3,6-diamine] | 6440
COc1cc2c(cc1OCCCOCc1ccccc1)ncc1c(N)nc3c(C)c(N)ccc3c12 [Ib-42, 10-[3-(benzyloxy)propoxy]-11-methoxy-4-methyldibenzo[c,f]-2,7-naphthyridine-3,6-diamine] | 2440
COc1cc2c(cc1OC[C@@H]1CCCN1Cc1ccccc1)ncc1c(N)nc3c(C)c(N)ccc3c12 [Ib-43, 10-{[(2S)-1-benzylpyrrolidin-2-yl]methoxy}-11-methoxy-4-methyldibenzo[c,f]-2,7-naphthyridine-3,6-diamine] | 2980
COc1cc2c(cc1OCCC1CCCC1)ncc1c(N)nc3c(C)c(N)ccc3c12 [Ib-45, 10-(2-cyclopentylethoxy)-11-methoxy-4-methyldibenzo[c,f]-2,7-naphthyridine-3,6-diamine] | 4530
COc1cc2ncc3c(N)nc4c(C)c(Cl)ccc4c3c2cc1OC [Ib-49, 3-chloro-10,11-dimethoxy-4-methyldibenzo[c,f]-2,7-naphthyridin-6-amine] | 2220
CNc1nc2c(C)c(N)ccc2c2c1cnc1cc(OC)c(OC)cc12 [Ic-1, 10,11-dimethoxy-N-6,4-dimethyldibenzo[c,f]-2,7-naphthyridine-3,6-diamine] | 36600

Further compounds by falling IC50, results first:

IC50 [nM] | SMILES
1370 | COc1cc2c(cc1O)ncc1c(N)nc3c(C)c(N)ccc3c12 [Ib-48, 7,10-diamino-2-methoxy-9-methyldibenzo[c,f]-2,7-naphthyridin-3-ol]
949 | COc1cc2c(cc1OC[C@@H]1CCCN1C[C@@H]1CCCN1C)ncc1c(N)nc3c(C)c(N)ccc3c12 [Ib-44, 11-methoxy-4-methyl-10-[((2S)-1-{[(2S)-1-methylpyrrolidin-2-yl]methyl}pyrrolidin-2-yl)methoxy]dibenzo[c,f]-2,7-naphthyridine-3,6-diamine]
670 | COc1cc2ncc3c(N)nc4cc(N)ccc4c3c2cc1OC [Ib-38, 10,11-dimethoxydibenzo[c,f]-2,7-naphthyridine-3,6-diamine]
667 | COc1cc2c(cc1OCCc1ccc(N(C)C)cc1)ncc1c(N)nc3c(C)c(N)ccc3c12 [Ib-32, 10-{2-[4-(dimethylamino)phenyl]ethoxy}-11-methoxy-4-methyldibenzo[c,f]-2,7-naphthyridine-3,6-diamine]
384 | COc1cc2c(cc1OCCC1CCN(C)CC1)ncc1c(N)nc3c(C)c(N)ccc3c12 [Ib-33, 11-methoxy-4-methyl-10-[2-(1-methylpiperidin-4-yl)ethoxy]dibenzo[c,f]-2,7-naphthyridine-3,6-diamine]
258 | COc1cc2ncc3c(N)nc4c(C)cccc4c3c2cc1OC [Ib-39, 10,11-dimethoxy-4-methyldibenzo[c,f]-2,7-naphthyridin-6-amine]
212 | COc1cc2c(cc1OCCC1CC1)ncc1c(N)nc3c(C)c(N)ccc3c12 [Ib-46, 10-(2-cyclopropylethoxy)-11-methoxy-4-methyldibenzo[c,f]-2,7-naphthyridine-3,6-diamine]
172 | CCOCCOc1cc2ncc3c(N)nc4c(C)c(N)ccc4c3c2cc1OC [Ib-47, 10-(2-ethoxyethoxy)-11-methoxy-4-methyldibenzo[c,f]-2,7-naphthyridine-3,6-diamine]
111 | COc1cc2c(cc1OCCCN1CCCC1=O)ncc1c(N)nc3c(C)c(N)ccc3c12 [Ib-35, 1-{3-[(7,10-diamino-2-methoxy-9-methyldibenzo[c,f]-2,7-naphthyridin-3-yl)oxy]propyl}pyrrolidin-2-one]
48.7 | COc1cc2ncc3c(N)nc4c(C)c(OC)ccc4c3c2cc1OC [Ib-51, 3,10,11-trimethoxy-4-methyldibenzo[c,f]-2,7-naphthyridin-6-amine]
46 | COc1cc2ncc3c(N)nc4c(C)c(O)ccc4c3c2cc1OC [Ib-50, 6-amino-10,11-dimethoxy-4-methyldibenzo[c,f]-2,7-naphthyridin-3-ol]
